Assay results published in US20030078518A1, “Method of treating the skin of a subject” (priority 2001, published 2003).

Assays:
Assay type in all cases: in vivo, human
IgE = experiment: Study 2: Total IgE ELISA in interstitial fluid, effect of supplementation; conditions: for Concentration of IgE (log), MEAN: Supplement Yes
Experimental: (§1) The laser made four pores at each collection site.
(§2) The other skin analytes were measured in Study 2 using standard ELISA kits: MMP-1 (ELISA Cat # QIA55, Oncogene Research Products, Cambridge Mass.); Total IgE (ELISA Cat # RE59061, IBL, Hamburg, Germany distributed by KMI Diagnostics); Non Extraction IGF-1 (ELISA Cat # DSL-10-2800, Diagnostics Systems Laboratories, Webster Tex.); IL-1 RA (ELISA Cat # DRA00, R&D Systems, Minneapolis, Minn.); IL-1A (ELISA Cat # EH2IL1A, Pierce/Endogen, Rockford, Ill.).

IGF-1 = experiment: Study 2: IGF-1 ELISA in interstitial fluid, effect of supplementation; conditions: Supplement Yes
Experimental: as §1, §2

IL-1A = experiment: Study 2: IL-1A ELISA in interstitial fluid, effect of supplementation; conditions: for Concentration of IL-1A (log), MEAN: Supplement Yes
Experimental: as §1, §2

IL-1 RA = experiment: Study 2: IL-1 RA ELISA in interstitial fluid, effect of supplementation; conditions: for Concentration of IL-1 RA (log), MEAN: Supplement Yes
Experimental: as §1, §2

MMP-1 = experiment: Study 2: MMP-1 ELISA in interstitial fluid, effect of supplementation; conditions: for Concentration of MMP-1 (log), MEAN: Supplement Yes
Experimental: as §1, §2

O=C1O[C@H]([C@@H](O)CO)C(O)=C1O [Vitamin C]
Effect of vitamin C supplement on concentration of IgE in ISF (IgE): significantly increased | Concentration of IgE (log), MEAN (IgE; sun-exposed site ISF): 4.94 | Concentration of IgE (log), MEAN (IgE; sun-protected site ISF): 18.50 | Concentration of IGF-1, MEAN (IGF-1; sun-exposed site ISF): 76.83 | Concentration of IGF-1, MEAN (IGF-1; sun-protected site ISF): 97.78 | Effect of vitamin C supplement on concentration of IL-1A in ISF (IL-1A): significantly increased | Concentration of IL-1A (log), MEAN (IL-1A; sun-exposed site ISF): 120.24 | Concentration of IL-1A (log), MEAN (IL-1A; sun-protected site ISF): 191.5 | Effect of vitamin C supplement on concentration of IL-1 RA in ISF (IL-1 RA): significantly increased | Concentration of IL-1 RA (log), MEAN (IL-1 RA; sun-exposed site ISF): 10140 | Concentration of IL-1 RA (log), MEAN (IL-1 RA; sun-protected site ISF): 9492 | Effect of vitamin C supplement on concentration of MMP-1 in ISF (MMP-1): significantly increased | Concentration of MMP-1 (log), MEAN (MMP-1; sun-exposed site ISF): 0.64 | Concentration of MMP-1 (log), MEAN (MMP-1; sun-protected site ISF): 0.91
